Laboratory results taken from BigSolDB 2.1.

Conditions: 298.15 K

## CCC(C)n1ncn(-c2ccc(N3CCN(c4ccc(OC[C@H]5CO[C@](Cn6cncn6)(c6ccc(Cl)cc6Cl)O5)cc4)CC3)cc2)c1=O (mixture of isomers)
In DMAc
  solubility (mole fraction): 0.0118
In DMF
  solubility (mole fraction): 0.0107
In DMSO
  solubility (mole fraction): 0.00175
In NMP
  solubility (mole fraction): 0.022
In THF
  solubility (mole fraction): 0.00212
In acetone
  solubility (mole fraction): 0.000637
In acetonitrile
  solubility (mole fraction): 7.95e-05
In chloroform
  solubility (mole fraction): 0.0504
In dichloromethane
  solubility (mole fraction): 0.0327
In ethanol
  solubility (mole fraction): 1.91e-05
In isopropanol
  solubility (mole fraction): 2.14e-05
In methanol
  solubility (mole fraction): 3.79e-05
In n-butanol
  solubility (mole fraction): 2.3e-05
In n-propanol
  solubility (mole fraction): 2.05e-05
In transcutol
  solubility (mole fraction): 0.00073
In water
  solubility (mole fraction): 2.43e-07
